Reference: PubChem BioAssay AID1845210 (Molecular Pharmacology Branch, DTP, NCI, 2023)
“And” between values parts separate entries of the source, which are not always exact repeats. Equal entries are not always repeated.

System: NCI-H226 complex tumor spheroids, viability
Assay: Anticancer human tumor NCI-H226 cell line growth inhibition;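 note: spheroids exposed to compound for 7 days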;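 for viability, T/C: 100% = DMSO vehicle control viability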
Conditions: for viability, T/C: stronger effect = lower value
In short: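 Complex spheroids of malignant cells with endothelial cells and mesenchymal stem cells; agents alone or combined, from near clinical Cmax (or 10 microM if unknown) down in half-log steps, 0.25% DMSO final.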

Compound: Cc1cc(C)c(CNC(=O)c2cc(-c3ccc(CN4CCOCC4)cc3)cc3c2cnn3C2CCCC2)c(=O)[nH]1 + Cn1nnc2c(C(N)=O)ncn2c1=O
- IC50 (curve of first compound, second compound 1 µM): > 10000 nM
- IC50 (curve of first compound, second compound 3.16 µM): > 10000 nM
- IC50 (curve of first compound, second compound 10 µM): > 10000 nM
- IC50 (curve of first compound, second compound 31.6 µM): > 10000 nM
- IC50 (curve of first compound, second compound 100 µM): > 10000 nM
- viability, T/C (second compound 1 µM, first compound 0.0316 µM): 113%
- viability, T/C (second compound 1 µM, first compound 0.1 µM): 125%
- viability, T/C (second compound 1 µM, first compound 0.316 µM): 106%
- viability, T/C (second compound 1 µM, first compound 1 µM): 115%
- viability, T/C (second compound 1 µM, first compound 3.16 µM): 131%
- viability, T/C (second compound 1 µM, first compound 10 µM): 102%
- viability, T/C (second compound 3.16 µM, first compound 0.0316 µM): 125%
- viability, T/C (second compound 3.16 µM, first compound 0.1 µM): 135%
- viability, T/C (second compound 3.16 µM, first compound 0.316 µM): 113%
- viability, T/C (second compound 3.16 µM, first compound 1 µM): 113%
- viability, T/C (second compound 3.16 µM, first compound 3.16 µM): 97.4%
- viability, T/C (second compound 3.16 µM, first compound 10 µM): 119%
- viability, T/C (second compound 10 µM, first compound 0.0316 µM): 128%
- viability, T/C (second compound 10 µM, first compound 0.1 µM): 136%
- viability, T/C (second compound 10 µM, first compound 0.316 µM): 122%
- viability, T/C (second compound 10 µM, first compound 1 µM): 109%
- viability, T/C (second compound 10 µM, first compound 3.16 µM): 111%
- viability, T/C (second compound 10 µM, first compound 10 µM): 125%
- viability, T/C (second compound 31.6 µM, first compound 0.0316 µM): 123%
- viability, T/C (second compound 31.6 µM, first compound 0.1 µM): 108%
- viability, T/C (second compound 31.6 µM, first compound 0.316 µM): 116%
- viability, T/C (second compound 31.6 µM, first compound 1 µM): 109%
- viability, T/C (second compound 31.6 µM, first compound 3.16 µM): 103%
- viability, T/C (second compound 31.6 µM, first compound 10 µM): 144%
- viability, T/C (second compound 100 µM, first compound 0.0316 µM): 108%
- viability, T/C (second compound 100 µM, first compound 0.1 µM): 114%
- viability, T/C (second compound 100 µM, first compound 0.316 µM): 122%
- viability, T/C (second compound 100 µM, first compound 1 µM): 130%
- viability, T/C (second compound 100 µM, first compound 3.16 µM): 110%
- viability, T/C (second compound 100 µM, first compound 10 µM): 132%

Compound: CNCc1ccc(-c2cc(-c3nc(-c4ccc(S(=O)(=O)C(C)C)cc4)cnc3N)on2)cc1 + CC[C@@]1(O)C(=O)OCc2c1cc1n(c2=O)Cc2cc3c(CN(C)C)c(O)ccc3nc2-1
- IC50 (curve of first compound, second compound 0.003 µM): 1710 nM
- IC50 (curve of first compound, second compound 0.00949 µM): 1560 nM
- IC50 (curve of first compound, second compound 0.03 µM): 1700 nM
- IC50 (curve of first compound, second compound 0.0949 µM): 1670 nM
- IC50 (curve of first compound, second compound 0.3 µM): 1310 nM
- viability, T/C (second compound 0.003 µM, first compound 0.00949 µM): 111%
- viability, T/C (second compound 0.003 µM, first compound 0.03 µM): 116%
- viability, T/C (second compound 0.003 µM, first compound 0.0949 µM): 125%
- viability, T/C (second compound 0.003 µM, first compound 0.3 µM): 130%
- viability, T/C (second compound 0.003 µM, first compound 0.949 µM): 89.8%
- viability, T/C (second compound 0.003 µM, first compound 3 µM): 12.1%
- viability, T/C (second compound 0.00949 µM, first compound 0.00949 µM): 99.1%
- viability, T/C (second compound 0.00949 µM, first compound 0.03 µM): 112%
- viability, T/C (second compound 0.00949 µM, first compound 0.0949 µM): 108%
- viability, T/C (second compound 0.00949 µM, first compound 0.3 µM): 107%
- viability, T/C (second compound 0.00949 µM, first compound 0.949 µM): 87%
- viability, T/C (second compound 0.00949 µM, first compound 3 µM): 1.35%
- viability, T/C (second compound 0.03 µM, first compound 0.00949 µM): 90.5%
- viability, T/C (second compound 0.03 µM, first compound 0.03 µM): 109%
- viability, T/C (second compound 0.03 µM, first compound 0.0949 µM): 115%
- viability, T/C (second compound 0.03 µM, first compound 0.3 µM): 123%
- viability, T/C (second compound 0.03 µM, first compound 0.949 µM): 97.4%
- viability, T/C (second compound 0.03 µM, first compound 3 µM): 3.86%
- viability, T/C (second compound 0.0949 µM, first compound 0.00949 µM): 90.7%
- viability, T/C (second compound 0.0949 µM, first compound 0.03 µM): 105%
- viability, T/C (second compound 0.0949 µM, first compound 0.0949 µM): 104%
- viability, T/C (second compound 0.0949 µM, first compound 0.3 µM): 110%
- viability, T/C (second compound 0.0949 µM, first compound 0.949 µM): 96.7%
- viability, T/C (second compound 0.0949 µM, first compound 3 µM): 1.91%
- viability, T/C (second compound 0.3 µM, first compound 0.00949 µM): 70.1%
- viability, T/C (second compound 0.3 µM, first compound 0.03 µM): 76.7%
- viability, T/C (second compound 0.3 µM, first compound 0.0949 µM): 92.8%
- viability, T/C (second compound 0.3 µM, first compound 0.3 µM): 101%
- viability, T/C (second compound 0.3 µM, first compound 0.949 µM): 69.5%
- viability, T/C (second compound 0.3 µM, first compound 3 µM): 0.93%

Compound: Cn1ncnc1[C@H]1c2n[nH]c(=O)c3cc(F)cc(c23)N[C@@H]1c1ccc(F)cc1
- viability, T/C (compound 0.00949 µM): 96.2% and 89.2% and 90.4%
- viability, T/C (compound 0.03 µM): 94.6% and 95.9% and 92.7%
- viability, T/C (compound 0.0949 µM): 87.4% and 93.6% and 101%
- viability, T/C (compound 0.3 µM): 89.4% and 101% and 88.2%
- viability, T/C (compound 0.949 µM): 88.6% and 84.1% and 87%
- viability, T/C (compound 3 µM): 94.2% and 99.2% and 107%
- IC50 (curve of compound): > 3000 nM
